Like-named read-outs stand apart in the source and are kept apart here.
Assays:
[1] = Tissue distribution study in rabbits after oral Panax notoginseng extract with or without Borneol; type: in vivo, New Zealand rabbits; conditions: New Zealand, rabbit; for Kp at 1 h: oral, Borneol combined with Panax notoginseng; for concentration at 0.5 h / concentration at 1 h / concentration at 3 h: po; for concentration at 3 h: 3 mL·kg^−1, 3.0 h
Experimental: Frozen plasma and tissue samples were thawed in a water bath at 37°C and were then vortexed followed by centrifuging at 5000 r·min^−1 for 5 min. An aliquot of 1.0 mL of the supernatant from each sample was loaded onto C18 Bond Elute Solid phase extraction (SPE) cartridges (1000 mg, 1 cc reservoir, Varian, Harbor City, CA, USA) pretreated with 2.0 mL hexane, isopropanol, methanol, and water, sequentially. The SPE cartridges were then washed with 1.0 mL water, 20% methanol/water solution, 40% methanol/water solution, and 60% methanol/water solution, sequentially. Finally, analytes were eluted twice with 1.0 mL of 70% methanol/water solution. The eluant was evaporated to dryness under nitrogen. The residues were then reconstituted in 1.0 mL mobile phase. An aliquot of 10 μL was injected into the LC-MS system.
One group of rabbits (n = 18) was orally administered a dose of 3.0 mL·kg^−1 Panax notoginseng extract, while another group of rabbits (n = 18) was orally given 3.0 mL·kg^−1 Panax notoginseng extract combined with Borneol. At 0.5, 1, and 3 h after administration, blood samples were collected from the central ear artery of six rabbits from each group, and the heart, liver, lung, kidney, and brain were immediately removed after animals were sacrificed by decapitation. An accurately weighed amount of tissue (1 g) was collected to be rinsed, dried, minced, and homogenized (400 r·min^−1) in normal saline (1.5 mL). All of the samples were stored at −70°C and were processed prior to analysis with the proposed method as described in Section 2.6.

Caco-2 cells = experiment: MTT cytotoxicity assay toward Caco-2 cells; type: cell-based; conditions: chosen for transport study
Experimental: The Caco-2 cells were cultured in Dulbecco's modified Eagle's medium (DMEM) supplemented with 20% foetal bovine serum, 1% nonessential amino acids and penicillin-streptomycin, at 37°C in an atmosphere with a relative humidity of 95% and a CO2 flow of 5%. Medium was replaced every 2-3 days. When the cell monolayer reached 80% confluence, the cells were detached with a solution of 0.02% EDTA and 0.25% trypsin. The vinblastine-selected Caco-2 cells were cultivated in the presence of 10 nM vinblastine to induce P-glycoprotein (P-gp) expression. The culture medium was changed to a fresh medium without vinblastine 24 h before experiments, and the cells were used between passages 25 and 46. Prior to the transport study, cytotoxicity of NGR1, GRg1, GRe, and Borneol toward Caco-2 cells was determined using MTT assays. Noncytotoxic concentrations of 500 μM NGR1, GRg1, GRe, and 200 μM Borneol (dissolved in DMSO) were chosen for transport study.

Kp at 1 h ([1]; brain, peak levels at 1.0 h, read-out: level in brain, fold higher than the plasma concentrations): 1.14
concentration at 0.5 h ([1]; brain, 3 mL·kg^−1, 0.5 h, oral Panax notoginseng with Borneol, read-out: Concentration in brain): 1800 ± 420 ng/g
concentration at 0.5 h ([1]; brain, 3 mL·kg^−1, 0.5 h, oral Panax notoginseng, read-out: Concentration in brain): 1050 ± 420 ng/g
concentration at 1 h ([1]; brain, 3 mL·kg^−1, 1.0 h, oral Panax notoginseng, read-out: Concentration in brain): 1210 ± 280 ng/g
concentration at 3 h ([1]; brain, oral Panax notoginseng with Borneol, read-out: Concentration in brain): 1650 ± 230 ng/g
concentration at 3 h ([1]; brain, oral Panax notoginseng, read-out: Concentration in brain): 630 ± 120 ng/g
concentration at 1 h ([1]; brain, 1.0 h, oral Panax notoginseng with Borneol, read-out: Concentration in brain): 2760 ± 630 ng/g
Kp at 1 h ([1]; heart, peak levels at 1.0 h, read-out: level in heart, fold higher than the plasma concentrations): 1.35
concentration at 0.5 h ([1]; heart, 3 mL·kg^−1, 0.5 h, oral Panax notoginseng with Borneol, read-out: Concentration in heart): 2810 ± 740 ng/g
concentration at 0.5 h ([1]; heart, 3 mL·kg^−1, 0.5 h, oral Panax notoginseng, read-out: Concentration in heart): 1650 ± 530 ng/g
concentration at 1 h ([1]; heart, 3 mL·kg^−1, 1.0 h, oral Panax notoginseng, read-out: Concentration in heart): 2110 ± 280 ng/g
concentration at 3 h ([1]; heart, oral Panax notoginseng with Borneol, read-out: Concentration in heart): 2240 ± 540 ng/g
concentration at 3 h ([1]; heart, oral Panax notoginseng, read-out: Concentration in heart): 1140 ± 130 ng/g
concentration at 1 h ([1]; heart, 1.0 h, oral Panax notoginseng with Borneol, read-out: Concentration in heart): 3280 ± 430 ng/g
Kp at 1 h ([1]; kidney, at 1.0 h, read-out: level in kidney, fold higher than the plasma concentrations): 1
concentration at 0.5 h ([1]; kidney, 3 mL·kg^−1, 0.5 h, oral Panax notoginseng with Borneol, read-out: Concentration in kidney): 2840 ± 530 ng/g
concentration at 0.5 h ([1]; kidney, 3 mL·kg^−1, 0.5 h, oral Panax notoginseng, read-out: Concentration in kidney): 1630 ± 180 ng/g
concentration at 1 h ([1]; kidney, 3 mL·kg^−1, 1.0 h, oral Panax notoginseng, read-out: Concentration in kidney): 1530 ± 220 ng/g
concentration at 3 h ([1]; kidney, oral Panax notoginseng with Borneol, read-out: Concentration in kidney): 1610 ± 450 ng/g
concentration at 3 h ([1]; kidney, oral Panax notoginseng, read-out: Concentration in kidney): 1150 ± 130 ng/g
concentration at 1 h ([1]; kidney, 1.0 h, oral Panax notoginseng with Borneol, read-out: Concentration in kidney): 2430 ± 290 ng/g
Kp at 1 h ([1]; liver, peak levels at 1.0 h, read-out: level in liver, fold higher than the plasma concentrations): 1.97
concentration at 0.5 h ([1]; liver, 3 mL·kg^−1, 0.5 h, oral Panax notoginseng with Borneol, read-out: Concentration in liver): 3600 ± 460 ng/g
concentration at 0.5 h ([1]; liver, 3 mL·kg^−1, 0.5 h, oral Panax notoginseng, read-out: Concentration in liver): 990 ± 330 ng/g
concentration at 1 h ([1]; liver, 3 mL·kg^−1, 1.0 h, oral Panax notoginseng, read-out: Concentration in liver): 1300 ± 250 ng/g
concentration at 3 h ([1]; liver, oral Panax notoginseng with Borneol, read-out: Concentration in liver): 2630 ± 810 ng/g
concentration at 3 h ([1]; liver, oral Panax notoginseng, read-out: Concentration in liver): 690 ± 110 ng/g
concentration at 1 h ([1]; liver, 1.0 h, oral Panax notoginseng with Borneol, read-out: Concentration in liver): 4770 ± 420 ng/g
Kp at 1 h ([1]; lung, peak levels at 1.0 h, read-out: level in lung, fold higher than the plasma concentrations): 1.24
concentration at 0.5 h ([1]; lung, 3 mL·kg^−1, 0.5 h, oral Panax notoginseng with Borneol, read-out: Concentration in lung): 2480 ± 690 ng/g
concentration at 0.5 h ([1]; lung, 3 mL·kg^−1, 0.5 h, oral Panax notoginseng, read-out: Concentration in lung): 700 ± 410 ng/g
concentration at 1 h ([1]; lung, 3 mL·kg^−1, 1.0 h, oral Panax notoginseng, read-out: Concentration in lung): 920 ± 130 ng/g
concentration at 3 h ([1]; lung, oral Panax notoginseng with Borneol, read-out: Concentration in lung): 1530 ± 450 ng/g
concentration at 3 h ([1]; lung, oral Panax notoginseng, read-out: Concentration in lung): 310 ± 440 ng/g
concentration at 1 h ([1]; lung, 1.0 h, oral Panax notoginseng with Borneol, read-out: Concentration in lung): 2990 ± 170 ng/g
concentration at 0.5 h ([1]; plasma, 3 mL·kg^−1, 0.5 h, oral Panax notoginseng, read-out: Concentration in plasma): 1780 ± 110 ng/mL
concentration at 1 h ([1]; plasma, 3 mL·kg^−1, 1.0 h, oral Panax notoginseng, read-out: Concentration in plasma): 1900 ± 150 ng/mL
concentration at 3 h ([1]; plasma, oral Panax notoginseng with Borneol, read-out: Concentration in plasma): 870 ± 40 ng/mL
concentration at 3 h ([1]; plasma, oral Panax notoginseng, read-out: Concentration in plasma): 790 ± 20 ng/mL
concentration at 0.5 h ([1]; plasma, 0.5 h, oral Panax notoginseng with Borneol, read-out: Concentration in plasma): 2680 ± 130 ng/mL
concentration at 1 h ([1]; plasma, 1.0 h, oral Panax notoginseng with Borneol, read-out: Concentration in plasma): 2420 ± 80 ng/mL
Compound: CC(C)=CCC[C@](C)(O[C@@H]1O[C@H](CO)[C@@H](O)[C@H](O)[C@H]1O)[C@H]1CC[C@]2(C)[C@@H]1[C@H](O)C[C@@H]1[C@@]3(C)CC[C@H](O)C(C)(C)[C@@H]3[C@@H](O[C@@H]3O[C@H](CO)[C@@H](O)[C@H](O)[C@H]3O[C@@H]3O[C@@H](C)[C@H](O)[C@@H](O)[C@H]3O)C[C@]12C [GRe, ginsenoside Re]
Noncytotoxic concentration (Caco-2 cells): 500 µM

From publication PMC3626250, “Effects of Borneol on Pharmacokinetics and Tissue Distribution of Notoginsenoside R1 and Ginsenosides Rg1 and Re in Panax notoginseng in Rabbits” (Journal of Analytical Methods in Chemistry, 2013)
